Reference: PubChem BioAssay AID2060892 (Molecular Pharmacology Branch, DTP, NCI, 2025)
Several values for one entry are separate records, joined by “and”; a condition that tells them apart may be missing. Equal values may be shown once.

Tested on: HOP-62 complex spheroids with HUVEC/MSC, viability
Test: Anticancer human tumor HOP-62 cell line growth inhibition [RAS];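 further: spheroids exposed to agents for seven days before readout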;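 on viability, T/C: 100% = DMSO vehicle control viability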
Details: for viability, T/C: stronger effect = lower value
Procedure, shortened: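 Tumour cells grown as complex spheroids with HUVEC endothelial cells and mesenchymal stem cells, treated with RAS pathway inhibitor combinations. Each agent spans half-log steps from near clinical Cmax, or 10 microM where Cmax is unknown.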

[1] = curve of first compound, second compound 0.000949 µM
[2] = curve of first compound, second compound 0.003 µM
[3] = curve of first compound, second compound 0.00949 µM
[4] = curve of first compound, second compound 0.03 µM
[5] = curve of first compound, second compound 0.0949 µM
[6] = curve of first compound, second compound 0.3 µM
[7] = second compound 0.000949 µM, first compound 0.0316 µM
[8] = second compound 0.000949 µM, first compound 0.1 µM
[9] = second compound 0.000949 µM, first compound 0.316 µM
[10] = second compound 0.000949 µM, first compound 1 µM
[11] = second compound 0.003 µM, first compound 0.0316 µM
[12] = second compound 0.003 µM, first compound 0.1 µM
[13] = second compound 0.003 µM, first compound 0.316 µM
[14] = second compound 0.003 µM, first compound 1 µM
[15] = second compound 0.00949 µM, first compound 0.0316 µM
[16] = second compound 0.00949 µM, first compound 0.1 µM
[17] = second compound 0.00949 µM, first compound 0.316 µM
[18] = second compound 0.00949 µM, first compound 1 µM
[19] = second compound 0.03 µM, first compound 0.0316 µM
[20] = second compound 0.03 µM, first compound 0.1 µM
[21] = second compound 0.03 µM, first compound 0.316 µM
[22] = second compound 0.03 µM, first compound 1 µM
[23] = second compound 0.0949 µM, first compound 0.0316 µM
[24] = second compound 0.0949 µM, first compound 0.1 µM
[25] = second compound 0.0949 µM, first compound 0.316 µM
[26] = second compound 0.0949 µM, first compound 1 µM
[27] = second compound 0.3 µM, first compound 0.0316 µM
[28] = second compound 0.3 µM, first compound 0.1 µM
[29] = second compound 0.3 µM, first compound 0.316 µM
[30] = second compound 0.3 µM, first compound 1 µM

`Cc1nc(N2CCC3(CC2)COC(C)C3N)c(CO)nc1Sc1ccnc(N)c1Cl` (stereo not drawn) + CCn1c(-c2cccnc2C(C)OC)c2c3cc(ccc31)N1CCOC(CC(NC(=O)C(C(C)C)N(C)C(=O)C3(F)CCN(C(=O)C#CC(C)(C)N(C)C)CC3)C(=O)N3CCCC(N3)C(=O)OCC(C)(C)C2)C1 showed an IC50 [1] of 2920 nM, an IC50 [2] of 541 nM and an IC50 [3] of 738 nM. For the same compound, the IC50 [4] was 465 nM, the IC50 [5] was 302 nM and the IC50 [6] was 213 nM. It also gave a viability, T/C [7] of 120%, a viability, T/C [8] of 101% and a viability, T/C [9] of 60.3%. It also gave a viability, T/C [10] of 65.7%, a viability, T/C (second compound 0.000949 µM, first compound 3.16 µM) of 63.3% and a viability, T/C (second compound 0.000949 µM, first compound 10 µM) of 31.3%. It also gave a viability, T/C [11] of 107%, a viability, T/C [12] of 80.1% and a viability, T/C [13] of 42.9%. The viability, T/C [14] was 55.6%, the viability, T/C (second compound 0.003 µM, first compound 3.16 µM) was 35.3% and the viability, T/C (second compound 0.003 µM, first compound 10 µM) was 18.3%. For the same compound, the viability, T/C [15] was 80.7%, the viability, T/C [16] was 59.4% and the viability, T/C [17] was 83.1%. It also gave a viability, T/C [18] of 41.3%, a viability, T/C (second compound 0.00949 µM, first compound 3.16 µM) of 23.9% and a viability, T/C (second compound 0.00949 µM, first compound 10 µM) of 22.4%. For the same compound, the viability, T/C [19] was 77.8%, the viability, T/C [20] was 70.5% and the viability, T/C [21] was 58.5%. For the same compound, the viability, T/C [22] was 34.9%, the viability, T/C (second compound 0.03 µM, first compound 3.16 µM) was 20.1% and the viability, T/C (second compound 0.03 µM, first compound 10 µM) was 20.9%. For the same compound, the viability, T/C [23] was 81.4%, the viability, T/C [24] was 64.2% and the viability, T/C [25] was 51.5%. For the same compound, the viability, T/C [26] was 35.5%, the viability, T/C (second compound 0.0949 µM, first compound 3.16 µM) was 19.8% and the viability, T/C (second compound 0.0949 µM, first compound 10 µM) was 23%. For the same compound, the viability, T/C [27] was 84.8%, the viability, T/C [28] was 66.1% and the viability, T/C [29] was 41.6%. For the same compound, the viability, T/C [30] was 26.5%, the viability, T/C (second compound 0.3 µM, first compound 3.16 µM) was 20.3% and the viability, T/C (second compound 0.3 µM, first compound 10 µM) was 19.4%.
In the case of `Cc1nc(N2CCC3(CC2)COC(C)C3N)c(CO)nc1Sc1ccnc(N)c1Cl` (stereo not drawn), the viability, T/C (compound 0.0316 µM) is reported as 108% [middle of 4 runs], the viability, T/C (compound 0.1 µM) is reported as 106% (3×) and 107% and the viability, T/C (compound 0.316 µM) is reported as 102% [middle of 4 runs]. For the same compound, the IC50 (curve of compound) was > 10000 nM.
Compound `Nc1ccn(C2OC(CO)C(O)C2(F)F)c(=O)n1` (stereo not drawn) + CCn1c(-c2cc(N3CCN(C)CC3)cnc2C(C)OC)c2c3cc(ccc31)-c1csc(n1)CC(NC(=O)C1CC1C)C(=O)N1CCCC(N1)C(=O)OCC(C)(C)C2 has an IC50 [1] of 15.7 nM, an IC50 [2] of 12.9 nM and an IC50 [3] of 12 nM. The IC50 [4] was 10.6 nM, the IC50 [5] was < 3.16 nM and the IC50 [6] was < 3.16 nM. For the same compound, the viability, T/C (second compound 0.000949 µM, first compound 0.00316 µM) was 121%, the viability, T/C (second compound 0.000949 µM, first compound 0.01 µM) was 71.2% and the viability, T/C [7] was 16.9%. It also gave a viability, T/C [8] of 12.5%, a viability, T/C [9] of 9.82% and a viability, T/C [10] of 5.86%. The viability, T/C (second compound 0.003 µM, first compound 0.00316 µM) was 93.9%, the viability, T/C (second compound 0.003 µM, first compound 0.01 µM) was 56% and the viability, T/C [11] was 29.5%. For the same compound, the viability, T/C [12] was 19.4%, the viability, T/C [13] was 14.9% and the viability, T/C [14] was 8.45%. For the same compound, the viability, T/C (second compound 0.00949 µM, first compound 0.00316 µM) was 68.1%, the viability, T/C (second compound 0.00949 µM, first compound 0.01 µM) was 52.5% and the viability, T/C [15] was 36.2%. The viability, T/C [16] was 26.6%, the viability, T/C [17] was 17.5% and the viability, T/C [18] was 17.3%. The viability, T/C (second compound 0.03 µM, first compound 0.00316 µM) was 60.4%, the viability, T/C (second compound 0.03 µM, first compound 0.01 µM) was 49.2% and the viability, T/C [19] was 40.3%. For the same compound, the viability, T/C [20] was 31%, the viability, T/C [21] was 20.8% and the viability, T/C [22] was 25.1%. It also gave a viability, T/C (second compound 0.0949 µM, first compound 0.00316 µM) of 45.6%, a viability, T/C (second compound 0.0949 µM, first compound 0.01 µM) of 38.4% and a viability, T/C [23] of 35.6%. It also gave a viability, T/C [24] of 28.9%, a viability, T/C [25] of 23.9% and a viability, T/C [26] of 27.4%. The viability, T/C (second compound 0.3 µM, first compound 0.00316 µM) was 43.5%, the viability, T/C (second compound 0.3 µM, first compound 0.01 µM) was 38.8% and the viability, T/C [27] was 39.7%. The viability, T/C [28] was 25.9%, the viability, T/C [29] was 25.9% and the viability, T/C [30] was 31.7%.
